Test results reported in US10975068B2, “6-aminopyridin-3-yl thiazoles as modulators of RORγT” (Janssen Pharmaceutica NV, priority 2016, dated 2021).
Where two headings read alike, the source gives them in different places.

Assays:
[1] = molecular target: full-length human RORγt (Homo sapiens (Human), UniProt P51449); test: RORγt (full-length human) reporter assay, Conditions B or C; format: cell-based; conditions: for inhibition at 3 µM: at 3 μM compound concentration; for inhibition at 3 µM / inhibition at 1 µM: read-out: RORγt (FL) Reporter Assay B or C, % inhibition; for RORγt (FL) Reporter Assay B or C, % inhibition (value marked *): marked *: footnote not given; for inhibition at 1 µM: at 1 μM compound concentration
Chain of full-length human RORγt (P51449 other isoform, or with tags, fused parts or gaps): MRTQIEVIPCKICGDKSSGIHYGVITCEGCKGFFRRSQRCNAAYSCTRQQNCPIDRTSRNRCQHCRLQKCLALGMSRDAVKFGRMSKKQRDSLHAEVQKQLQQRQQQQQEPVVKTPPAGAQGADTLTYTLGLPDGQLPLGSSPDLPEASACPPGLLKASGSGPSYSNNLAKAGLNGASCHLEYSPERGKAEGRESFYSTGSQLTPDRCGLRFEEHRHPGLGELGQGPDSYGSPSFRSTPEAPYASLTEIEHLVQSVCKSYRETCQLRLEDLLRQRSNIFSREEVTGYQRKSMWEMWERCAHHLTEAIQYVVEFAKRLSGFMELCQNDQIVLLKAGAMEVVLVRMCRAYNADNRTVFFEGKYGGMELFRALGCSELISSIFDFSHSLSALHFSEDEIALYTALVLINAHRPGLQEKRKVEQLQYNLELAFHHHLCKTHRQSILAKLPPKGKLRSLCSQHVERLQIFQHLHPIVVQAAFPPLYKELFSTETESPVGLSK
Method in brief: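 Readout is dual luciferase: firefly (GAL4-driven) normalized to DMSO-only and saturating-reference controls, then to CMV-Renilla. Full-length human RORγt fused to GAL4-DBD was transiently expressed in HEK293T; compound exposure ran overnight (16-20 h) starting 4-6 h after transfection, final FBS 1.3%, DMSO 0.1%.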

[2] = molecular target: human RORγt ligand binding domain (RORγt LBD) (Homo sapiens (Human), UniProt P51449); test: RORγt ThermoFluor® assay (thermal shift binding); conditions: read-out: ThermoFluor® Assay, Kd
Chain of human RORγt ligand binding domain (RORγt LBD) (P51449 other isoform, or with tags, fused parts or gaps): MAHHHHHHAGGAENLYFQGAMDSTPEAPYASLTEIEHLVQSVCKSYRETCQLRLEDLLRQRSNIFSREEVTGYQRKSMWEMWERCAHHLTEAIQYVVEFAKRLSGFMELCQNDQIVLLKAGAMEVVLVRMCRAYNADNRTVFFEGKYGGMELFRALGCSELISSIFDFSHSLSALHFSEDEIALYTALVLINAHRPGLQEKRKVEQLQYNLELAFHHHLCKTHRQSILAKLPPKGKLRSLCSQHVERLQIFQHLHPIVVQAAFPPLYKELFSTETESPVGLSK
Method in brief: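 Binding was inferred from thermal stabilisation (ΔTm) of the E. coli-expressed RORγt LBD (0.065 mg/mL), monitored by 1,8-ANS (60 μM) emission at 500 nm during a 1 °C/min ramp. Buffer was Hepes 100 mM pH 7.0 with NaCl, GSH and Tween-20.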

[3] = RORγt (FL) Reporter Assay B or C, IC50
[4] = read-out: RORγt (FL) Reporter Assay B or C, IC50
[5] = Conditions B or C, read-out: RORγt (FL) Reporter Assay B or C, IC50

Structure (SMILES)	IC50 [1, 3] [nM]	inhibition at 3 µM [1] [%]	Kd [2] [nM]	IC50 [1, 4] [nM]	RORγt (FL) Reporter Assay B or C, % inhibition (value marked *) ([1]; Conditions B or C)	IC50 [1, 5] [nM]	RORγt (FL) Reporter Assay B or C, % inhibition (value marked ***) ([1]; Conditions B or C, marked ***: footnote not given)	inhibition at 1 µM [1] [%]
C[C@H](NC(=O)c1nc(C(=O)N2C3CCC2CC3)c(-c2cnc(N[C@@H](C3CC3)C(F)(F)F)cc2C(F)F)s1)C(C)(C)O [Example 317, 4-((1s,4s)-7-Azabicyclo[2.2.1]heptane-7-carbonyl)-5-(6-(((S)-1-cyclopropyl-2,2,2-trifluoroethyl)amino)-4-(difluoromethyl)pyridin-3-yl)-N—((S)-3-hydroxy-3-methylbutan-2-yl)thiazole-2-carboxamide]	14	106	2.4					
C[C@H]1CCCN1C(=O)c1nc(C(=O)N2C[C@@H]3C[C@H]2CO3)sc1-c1cnc(NC(C)(C)C)cc1C(F)(F)F [Example 360, [5-[6-(tert-Butylamino)-4-(trifluoromethyl)-3-pyridyl]-2-[(1S,4S)-2-oxa-5-azabicyclo[2.2.1]heptane-5-carbonyl]thiazol-4-yl]-[(2S)-2-methylpyrrolidin-1-yl]methanone]		106	10	82				
CC[C@H](Nc1cc(C(F)F)c(-c2sc(C(=O)N[C@H](C)C(C)(C)O)nc2C(=O)N2CCCC[C@@H]2C)cn1)C(F)(F)F [Example 241, 5-[4-(Difluoromethyl)-6-[[(1S)-1-(trifluoromethyl)propyl]amino]-3-pyridyl]-N-[(1R)-2-hydroxy-1,2-dimethyl-propyl]-4-[(2S)-2-methylpiperidine-1-carbonyl]thiazole-2-carboxamide]			0.59		103* %	24		
CC(C)(O)CNC(=O)c1nc(C(=O)N2C3CCC2CC3)c(-c2cnc(NC(C)(C)C)cc2C(F)(F)F)s1 [Example 79, 4-((1s,4s)-7-Azabicyclo[2.2.1]heptane-7-carbonyl)-5-(6-(tert-butylamino)-4-(trifluoromethyl)pyridin-3-yl)-N-(2-hydroxy-2-methylpropyl)thiazole-2-carboxamide]			1.2		111* %	8.3		
C[C@H]1CCCN1C(=O)c1nc(C(=O)NC2(C)COC2)sc1-c1cnc(NC(C)(C)C)cc1C(F)(F)F [Example 253, 5-[6-(tert-Butylamino)-4-(trifluoromethyl)-3-pyridyl]-N-(3-methyloxetan-3-yl)-4-[(2S)-2-methylpyrrolidine-1-carbonyl]thiazole-2-carboxamide]		108	1.9	7.7				
CC[C@@H](Nc1cc(C(F)F)c(-c2sc(C(=O)N[C@H]3COC[C@@H]3O)nc2C(=O)N2CCC[C@@H]2C)cn1)C(F)(F)F [Example 207, 5-(4-(Difluoromethyl)-6-(((1R)-1-(trifluoromethyl)propyl)amino)-3-pyridyl)-N-((3S,4R)-4-hydroxytetrahydrofuran-3-yl)-4-((2S)-2-methylpyrrolidine-1-carbonyl)thiazole-2-carboxamide]			2.6			19	103*** %	
C[C@H](Nc1cc(C(F)F)c(-c2sc(C(=O)N[C@@H]3C[C@H]3O)nc2C(=O)N2CCC[C@@H]2C)cn1)C(F)(F)F (single isomer, unassigned) [Example 157, 5-(4-(Difluoromethyl)-6-(((S)-1,1,1-trifluoropropan-2-yl)amino)pyridin-3-yl)-N-((1R*,2R*)-2-hydroxycyclopropyl)-4-((S)-2-methylpyrrolidine-1-carbonyl)thiazole-2-carboxamide]			32		89* %	190		
C[C@H]1CC(F)(F)CN1C(=O)c1nc(C(=O)NCC(C)(C)O)sc1-c1cnc(NCC2(C)CC2)cc1C(F)(F)F [Example 277, 4-[(2S)-4,4-Difluoro-2-methyl-pyrrolidine-1-carbonyl]-N-(2-hydroxy-2-methyl-propyl)-5-[6-[(1-methylcyclopropyl)methylamino]-4-(trifluoromethyl)-3-pyridyl]thiazole-2-carboxamide]		113	2.4	11				
C[C@H]1CCCN1C(=O)c1nc(C(=O)N[C@H]2COC[C@@H]2O)sc1-c1cnc(NC(C)(C)C)cc1C(F)(F)F [Example 348, 5-[6-(tert-Butylamino)-4-(trifluoromethyl)-3-pyridyl]-N-[(3S,4R)-4-hydroxytetrahydrofuran-3-yl]-4-[(2S)-2-methylpyrrolidine-1-carbonyl]thiazole-2-carboxamide]		105	0.9	3.1				
CC(C)(C)Nc1cc(C(F)F)c(-c2sc(C(=O)N[C@@H]3CC[C@@H](O)C3)nc2C(=O)N2C3CCC2CC3)cn1 [Example 430, 4-((1s,4s)-7-Azabicyclo[2.2.1]heptane-7-carbonyl)-5-[6-(tert-butylamino)-4-(difluoromethyl)-3-pyridyl]-N-[(1R,3R)-3-hydroxycyclopentyl]thiazole-2-carboxamide]	13		0.6					130
C[C@H]1CC(F)(F)CN1C(=O)c1nc(C(=O)NCC(C)(C)O)sc1-c1cnc(NCC2(C(F)(F)F)CCC2)cc1C(F)F [Example 273, 4-[(2S)-4,4-Difluoro-2-methyl-pyrrolidine-1-carbonyl]-5-[4-(difluoromethyl)-6-[[1-(trifluoromethyl)cyclobutyl]methylamino]-3-pyridyl]-N-(2-hydroxy-2-methyl-propyl)thiazole-2-carboxamide]		102	0.51	5.2				
CC(C)(C)Nc1cc(C(F)F)c(-c2sc(C(=O)N[C@H]3CCC[C@@H]3O)nc2C(=O)N2C3CCC2CC3)cn1 [Example 440, 4-((1s,4s)-7-Azabicyclo[2.2.1]heptane-7-carbonyl)-5-[6-(tert-butylamino)-4-(difluoromethyl)-3-pyridyl]-N-[(1S,2S)-2-hydroxycyclopentyl]thiazole-2-carboxamide]	31	104	0.72					
CC[C@H](Nc1cc(C(F)F)c(-c2sc(C(=O)N[C@@H](C)C(C)(C)O)nc2C(=O)N2C3CCC2CC3)cn1)C(F)(F)F [Example 248]			3.4		102* %	16		
O=C(N[C@@H]1COC[C@H]1O)c1nc(C(=O)N2C3CCC2CC3)c(-c2cnc(N[C@@H](C3CC3)C(F)(F)F)cc2C(F)F)s1 [Example 442, 4-((1s,4s)-7-Azabicyclo[2.2.1]heptane-7-carbonyl)-5-[6-[[(1S)-1-cyclopropyl-2,2,2-trifluoro-ethyl]amino]-4-(difluoromethyl)-3-pyridyl]-N-[(3R,4S)-4-hydroxytetrahydrofuran-3-yl]thiazole-2-carboxamide]	320		1.6					96
C[C@H]1CC(F)(F)CN1C(=O)c1nc(C(=O)NCC(C)(C)O)sc1-c1cnc(NC2(C(F)(F)F)CCC2)cc1C(F)(F)F [Example 100, (S)-4-(4,4-Difluoro-2-methylpyrrolidine-1-carbonyl)-N-(2-hydroxy-2-methylpropyl)-5-(4-(trifluoromethyl)-6-((1-(trifluoromethyl)cyclobutyl)amino)pyridin-3-yl)thiazole-2-carboxamide]			0.39		108* %	14		
CC[C@H](Nc1cc(C(F)F)c(-c2sc(C(=O)N3CC(S(C)(=O)=O)C3)nc2C(=O)N2CCC[C@@H]2C)cn1)C(F)(F)F [Example 393, [5-[4-(Difluoromethyl)-6-[[(1S)-1-(trifluoromethyl)propyl]amino]-3-pyridyl]-2-(3-methylsulfonylazetidine-1-carbonyl)thiazol-4-yl]-[(28)-2-methylpyrrolidin-1-yl]methanone]		118	29	27				
C[C@H]1CCCN1C(=O)c1nc(C(=O)N[C@H]2C[C@H](O)C2)sc1-c1cnc(N[C@H](C)C(F)(F)F)cc1C(F)F [Example 319, 5-(4-(Difluoromethyl)-6-(((R)-1,1,1-trifluoropropan-2-yl)amino)pyridin-3-yl)-N-((1r,3S)-3-hydroxycyclobutyl)-4-((S)-2-methylpyrrolidine-1-carbonyl)thiazole-2-carboxamide]		91	29	79				
CC[C@H](Nc1cc(C(F)F)c(-c2sc(C(=O)NCC(C)(C)O)nc2C(=O)N2C3CCC2CC3)cn1)C1CC1 (stereo in doubt) [Example 163, 4-((1s,4s)-7-Azabicyclo[2.2.1]heptane-7-carbonyl)-5-(6-(((S*)-1-cyclopropyl)amino)-4-(difluoromethyl)pyridine-3-yl)-N-(2-hydroxy-2-methylpropyl)thiazole-2-carboxamide]			14		114* %	12		
C[C@H]1CCCN1C(=O)c1nc(C(=O)N[C@H](C)C(C)(C)O)sc1-c1cnc(NCC(C)(C)C)cc1C(F)(F)F [Example 334, 5-[6-(2,2-Dimethylpropylamino)-4-(trifluoromethyl)-3-pyridyl]-N-[(1R)-2-hydroxy-1,2-dimethyl-propyl]-4-[(2S)-2-methylpyrrolidine-1-carbonyl]thiazole-2-carboxamide]		106	1.4	7				
